Assay results from publication PMC7046553, “Backbone Cyclization and Dimerization of LL-37-Derived Peptides Enhance Antimicrobial Activity and Proteolytic Stability” (Frontiers in Microbiology, 2020).
Converted amounts (≈) assume the structure as drawn. Read-outs that look alike come from different tables or passages of the source. Where a SMILES comes first, the peptide text is derived from it.

Columns and labels:
[1] = test system: human lymphoma cell line U-937 GTB; conditions: read-out: IC50 (cytotoxicity); 72 hours incubation; tested in parallel with the dimers; ref Gunasekera et al., 2018; cited from earlier work
Human type A RBCs = assay: Hemolysis assay; type: cell-based
Protocol: Peptides were dissolved in water and serially diluted in PBS to give 20 μl test solutions in a 96-well U-bottomed microtiter plate (Nunc). Human type A RBCs (red blood cells) were washed with PBS and centrifuged at 1500 g for 60 s in a microcentrifuge several times until a clear supernatant was obtained. A 0.25% suspension of washed RBCs in PBS (100 μl) was added to the peptide solutions. The plate was incubated at 37°C for 1 h and centrifuged at 150 g for 5 min. Aliquots of 100 μl were transferred to a 96-well flat-bottomed microtiter plate (Falcon) and the absorbance was measured at 405 nm with an automatic Multiskan Ascent plate reader (Labsystems). The amount of hemolysis was calculated as the percentage of maximum lysis (1% Triton X-100 control) after adjusting for minimum lysis (PBS control). Synthetic melittin (Sigma) was used for comparison. The hemolytic dose necessary to lyse 50% of the RBCs (HD50) was calculated using the regression constant from the linear portion of the hemolytic titration curve (GraphPad Prism software).

in vitro = conditions: human, 25% human serum
Protocol: Proteolytic stability of the peptides were determined in diluted human serum (1:4 v/v, serum:PBS) at 37°C followed by LC-MS analysis. To examine the intact peptide after serum incubation, aliquots of each incubation mixture were taken at each time point for LC-MS analysis (Figure 5).
Peptide stability was assayed in diluted human serum. 25% human serum was centrifuged at 13,000 rpm for 10 min to remove lipids and the supernatant was collected and incubated at 37°C for 15 min. […] Eighty μl of 6 M urea was added and incubated at 4°C for a further 10 min. 80 μl of 20% TCA was added and incubated at 4°C for a further 10 min. The samples were centrifuged at 13000 g for 10 min and the supernatant was analyzed by LC-MS.

[2] = type: cell-based, human
Text: FIGURE 4 Cytotoxicity. Cytotoxicity on a human lymphoma cell line (U-937 GTB). The cell viability derives from the hydrolysis of the probe fluorescein diacetate by esterases in cells with intact plasma membranes. Results are means from triplicates with standard deviation, and the IC50 level is highlighted by a double line. The dose–response curve for LL-37 has been constrained within 100% to compensate for elevated fluorescein hydrolysis by intermediate LL-37 concentrations. The data for KR-12, Q5K,D9K and LL-37 are from our previous work ([Gunasekera et al., 2018]), but tested in parallel with the dimers and included here for consistency.
The cytotoxicity of the peptides was tested on the human lymphoma cell line U-937 GTB in a fluorometric microculture cytotoxicity assay (FMCA), described in detail previously ([Sundström and Nilsson, 1976]; [Lindhagen et al., 2008]). […] After incubation for 40 minutes the fluorescence was measured at 485 nm excitation and 538 nm emission using a Fluoroscan II (Labsystems Diagnostics Oy, Helsinki, FinlandI). The IC50-values were calculated using sigmoidal dose response curves with nonlinear non-linear regression and 0/100 constraints in GraphPad Prism (GraphPad Software, San Diego, CA, United States). […]

[3] = test system: Escherichia coli ATCC 25922; conditions: ATCC 25922, 5 h
Protocol: (§1) The three bacterial strains: Escherichia coli ATCC 25922, Pseudomonas aeruginosa ATCC 27853 Staphylococcus aureus ATCC 29213 as well as the fungal strain Candida albicans ATCC 90028 derived from clinical wound infections were obtained from the Department of Clinical Bacteriology at Lund University Hospital.
(§2) Antimicrobial activities of the peptides were evaluated using the two-step microdilution assay ([Strömstedt et al., 2017]), which is designed for testing AMPs without activity-inhibiting components. Briefly, the microbial suspension was washed twice with 10 mM Tris buffer (set to pH 7.4 at 37°C). 96-well plates (U-shaped, untreated polystyrene) were prepared with peptide 2-fold serial dilutions in Tris buffer. The culture density was quantified by OD600, diluted in Tris buffer and 50,000 cells aliquoted to each well in the 96-well plate to a final 100 μl volume. After 5 h of aerobic incubation at 37°C, 5 μl of 20% TSB medium was added to each well (resulting in 1% TSB) and the plates were re-incubated. Growth-inhibition was monitored when controls produced pellet sizes of 2 mm in diameter (close to growth saturation), which equates to 5, 8, 10, and 12 h for E. coli, S. aureus, P. aeruginosa, and C. albicans, respectively. […] The MIC-values in Table 1, are medians from triplicate experiments, while the data presented in the Figure 2 are the same values relative to that of KR-12.

[4] = test system: Pseudomonas aeruginosa ATCC 27853; conditions: ATCC 27853, 5 h
Protocol: as §1, §2

[5] = test system: Candida albicans ATCC 90028; conditions: ATCC 90028, 5 h
Protocol: as §1, §2

[6] = test system: Staphylococcus aureus ATCC 29213; conditions: ATCC 29213, 5 h
Protocol: as §1, §2

| Compound | IC50 [1] [µM] | HC50 (hemolysis) (Human type A RBCs; red cells of human, 1 h) [µM] | remaining at 6 h (in vitro) [%] | IC50 [2] [µM] | MIC E. coli [3] [µM] | MIC bact. [3] [µM] | MIC P. aeruginosa [4] [µM] | MIC C. albicans [5] [µM] | MIC fung. [5] [µM] | MIC S. aureus [6] [µM] | HC50 (hemolysis) (Human type A RBCs) [µM] |
| --- | --- | --- | --- | --- | --- | --- | --- | --- | --- | --- | --- |
| CC[C@H](C)[C@H](NC(=O)[C@H](CCCCN)NC(=O)[C@H](CCC(=O)O)NC(=O)[C@H](CCCCN)NC(=O)[C@H](CO)NC(=O)[C@H](CCCCN)NC(=O)[C@H](CCCNC(=N)N)NC(=O)[C@H](Cc1ccccc1)NC(=O)[C@H](Cc1ccccc1)NC(=O)[C@H](CC(=O)O)NC(=O)CNC(=O)[C@H](CC(C)C)NC(=O)[C@@H](N)CC(C)C)C(=O)NCC(=O)N[C@@H](CCCCN)C(=O)N[C@@H](CCC(=O)O)C(=O)N[C@@H](Cc1ccccc1)C(=O)N[C@@H](CCCCN)C(=O)N[C@@H](CCCNC(=N)N)C(=O)N[C@H](C(=O)N[C@H](C(=O)N[C@@H](CCC(N)=O)C(=O)N[C@@H](CCCNC(=N)N)C(=O)N[C@H](C(=O)N[C@@H](CCCCN)C(=O)N[C@@H](CC(=O)O)C(=O)N[C@@H](Cc1ccccc1)C(=O)N[C@@H](CC(C)C)C(=O)N[C@@H](CCCNC(=N)N)C(=O)N[C@@H](CC(N)=O)C(=O)N[C@@H](CC(C)C)C(=O)N[C@H](C(=O)N1CCC[C@H]1C(=O)N[C@@H](CCCNC(=N)N)C(=O)N[C@H](C(=O)N[C@@H](CCC(=O)O)C(=O)N[C@@H](CO)C(=O)O)[C@@H](C)O)C(C)C)[C@@H](C)CC)C(C)C)[C@@H](C)CC [LL-37] | 10 |  |  |  |  |  |  |  |  |  |  |
| CC[C@H](C)[C@@H]1NC(=O)[C@H](CCCNC(=N)N)NC(=O)[C@H](CCCCN)NC(=O)[C@H](C(C)C)NC(=O)[C@H]([C@@H](C)CC)NC(=O)[C@H](CCCNC(=N)N)NC(=O)[C@H](CCCCN)NC(=O)CNC(=O)CNC(=O)[C@H](C)NC(=O)CNC(=O)[C@H](CCCNC(=N)N)NC(=O)[C@H](CC(C)C)NC(=O)[C@H](Cc2ccccc2)NC(=O)[C@H](CCCCN)NC(=O)[C@H](CCCCN)NC(=O)[C@H]([C@@H](C)CC)NC(=O)[C@H](CCCNC(=N)N)NC(=O)[C@H](CCCCN)NC(=O)[C@H](C(C)C)NC(=O)[C@H]([C@@H](C)CC)NC(=O)[C@H](CCCNC(=N)N)NC(=O)[C@H](CCCCN)NC(=O)CNC(=O)CNC(=O)[C@H](C)NC(=O)CNC(=O)[C@H](CCCNC(=N)N)NC(=O)[C@H](CC(C)C)NC(=O)[C@H](Cc2ccccc2)NC(=O)[C@H](CCCCN)NC(=O)[C@H](CCCCN)NC1=O [cd4(Q5K,D9K)] (cyclo(AGGKRIVKRIKKFLRGAGGKRIVKRIKKFLRG)) |  | 10 | ~50 | 1 | 0.625 (≈ 2.26 µg/mL) | 0.63 (≈ 2.28 µg/mL) | 0.625 (≈ 2.26 µg/mL) | 1.25 (≈ 4.52 µg/mL) | 1.25 (≈ 4.52 µg/mL) | 0.625 (≈ 2.26 µg/mL) |  |
| CC[C@H](C)[C@@H]1NC(=O)[C@H](CCCNC(=N)N)NC(=O)[C@H](CCC(N)=O)NC(=O)[C@H](C(C)C)NC(=O)[C@H]([C@@H](C)CC)NC(=O)[C@H](CCCNC(=N)N)NC(=O)[C@H](CCCCN)NC(=O)CNC(=O)CNC(=O)[C@H](C)NC(=O)CNC(=O)[C@H](CCCNC(=N)N)NC(=O)[C@H](CC(C)C)NC(=O)[C@H](Cc2ccccc2)NC(=O)[C@H](CC(=O)O)NC(=O)[C@H](CCCCN)NC(=O)[C@H]([C@@H](C)CC)NC(=O)[C@H](CCCNC(=N)N)NC(=O)[C@H](CCC(N)=O)NC(=O)[C@H](C(C)C)NC(=O)[C@H]([C@@H](C)CC)NC(=O)[C@H](CCCNC(=N)N)NC(=O)[C@H](CCCCN)NC(=O)CNC(=O)CNC(=O)[C@H](C)NC(=O)CNC(=O)[C@H](CCCNC(=N)N)NC(=O)[C@H](CC(C)C)NC(=O)[C@H](Cc2ccccc2)NC(=O)[C@H](CC(=O)O)NC(=O)[C@H](CCCCN)NC1=O [cd4] (cyclo(AGGKRIVQRIKDFLRGAGGKRIVQRIKDFLRG)) |  |  | ~50 | 5.1 | 0.625 (≈ 2.25 µg/mL) | 0.63 (≈ 2.26 µg/mL) | 0.625 (≈ 2.25 µg/mL) | 2.5 (≈ 8.98 µg/mL) | 2.5 (≈ 8.98 µg/mL) | 1.25 (≈ 4.49 µg/mL) | > 40 |
